Experiment [1] has as its system explants of human skin of phototype IV. Briefly: Quantification of the melanin in human skin explants irradiated with blue light. To be noted: topical refined plant oil with 12.5 ppm neurosporene and 4 ppm other carotenoids, 5 mg/cm2 daily; blue light 447 nm, 202.6 J/cm2; Fontana-Masson staining; p-value<0.01.
Procedure: Explants of human skin of phototype IV were placed under culture conditions. After 24 h, three conditions were studied: a nontreated control, a topical treatment with refined plant oil alone or a topical treatment with a preparation of refined plant oil containing neurosporene (12.5 ppm of neurosporene and 4 ppm of a mixture of carotenoids, namely phytoene, lycopene, zeta-carotene, phytofluene and gamma-carotene). The products were applied every day (5 mg/cm 2) for 3 days. Each condition was carried out in triplicate.
After 3 days of pretreatment, a blue light stress was applied by irradiation at the wavelength of 447 nm each day for 3 days, corresponding to a dose of 202.6 J/cm^2. After each irradiation, the explants were again and, depending on the conditions, not treated or treated either with plant oil alone or with the plant oil containing neurosporene.
The melanin was then quantified after analysis of images taken with an epifluorescence microscope (Zeiss, Axio Imager Z1, ApoTome, Zen2 software blue edition) and staining according to the Fontana Masson method. The images were then analyzed on ImageJ. The area of melanin staining was standardized by the length of the basal lamina. The experiment was carried out in triplicate for each condition (nontreated, treatment with vegetable oil alone, treatment with vegetable oil enriched in neurosporene).
The subject of experiment [2] is HaCaT human keratinocytes. Briefly: Detection of ROSs in keratinocytes under irradiation with blue light. To be noted: 1 h pretreatment, neurosporene 0 to 4 μg/ml or bacterial extract 0 to 15 μg/ml; blue light 460 nm, 150 J/cm2; CellROX deep red; FIGS. 3-4. Format: cell-based. As to the method:
(§1) HaCaT human keratinocytes were seeded into 96-well microplates in a proportion of 10 000 cells/well in DMEM medium supplemented with 10% of FCS (fetal calf serum) and incubated at 37° C. in 5% CO2 and 95% humidity for 24 hours. After this period of recovery, the cells were pretreated with either 43 μg/ml of α-tocopherol or with an increasing range of neurosporene (from 0 to 4 μg/ml) or with an increasing range of bacterial extract comprising neurosporene (from 0 to 15 μg/ml) for one hour. At the end of the pretreatment, 5 μM of “CellROX deep red” (a label which becomes fluorescent in the presence of reactive oxygen species (ROS)) and Hoechst (10 μg/ml) (which becomes fluorescent when it is bound to the DNA in the nucleus) were added to the medium. Immediately afterwards, the cells were treated either with UVA radiation (20 J/cm 2), or with a blue light (460 nm, 150 J/cm 2). The cells were then washed three times in 1×DPBS buffer and observed under a fluorescence microscope (CellInsight CX7, ThermoFisher). The fluorescence signals were then analyzed using the HCS Studio software (ThermoFisher) in order to quantify the ROSs produced in the cytosol.

In experiment [3] the test system is HaCaT human keratinocytes. Briefly: Wound healing test (scratched keratinocyte monolayer). Format: cell-based. To be noted: neurosporene 0.12 μg/ml; FCS-free DMEM; FIG. 6.
Procedure: HaCaT human keratinocytes were seeded into 96-well microplates in a proportion of 33 000 cells/well in DMEM medium supplemented with 10% of FCS and incubated at 37° C. in 5% CO2 and 95% humidity for 24 hours. Once confluence was reached, the cells were washed three times in FCS-free DMEM in order to remove from the wells the growth factors present in the complete medium. The keratinocyte monolayers were then scratched using a “WoundMaker” (Essen Biosciences) which makes it possible to injure cell monolayers in 96-well format. The cells were then washed three times with FCS-free DMEM in order to remove the cell debris. After washing, DMEM medium was added to the wells. EGF (Epidermal growth factor, ng/ml) used as positive control for injury filling or neurosporene (0.12 μg/ml) was added to the wells. The wound healing was observed by phase-contrast microscopy using an “Incucyte ZOOM” (Essen Biosciences), which is an automatic microscope maintained in a CO2 incubator. The images were then processed using the associated software.
In experiment [4] the test system is HaCaT human keratinocytes. Briefly: Assaying of ATP after irradiation with blue light. Format: cell-based. To be noted: 24 h pretreatment with dry bacterial extract in DMSO containing 0.05 μg/ml neurosporene; blue light 460 nm, 100 J/cm2; ATP standardized by live cells; FIG. 10.
Procedure: HaCaT human keratinocytes were seeded into 96-well microplates in a proportion of 20 000 cells/well in DMEM supplemented with 10% of fetal calf serum and incubated at 37° C. in 5% CO2 and 95% humidity for 24 hours. After a period of recovery, the cells were pretreated with a dry bacterial extract taken up in DMSO and containing 0.05 μg/ml of neurosporene and a mixture of carotenoids (phytoene, lycopene, zeta-carotene, phytofluene and gamma-carotene), the neurosporene being the major carotenoid of this extract. The cells were incubated at 37° C. in 5% CO2 and 95% humidity for 24 hours. Immediately afterwards, the cells were irradiated with blue light (460 nm, 100 J/cm 2). The cells were then washed three times in 1×PBS buffer and permeabilized with 2% triton at 25° C. for 20 min. The supernatants were then collected in order to quantify the ATP by luminescence (Invitrogen™ ATP Determination Kit, Molecular Probes™). The amount of ATP per well is standardized by the amount of live cells. Each condition was carried out in triplicate.
Experiment [5] has as its system HaCaT human keratinocytes. Nature of the experiment: Detection of ROSs in keratinocytes under irradiation with UVA radiation. To be noted: 1 h pretreatment, neurosporene 0 to 4 μg/ml or bacterial extract 0 to 15 μg/ml; UVA 20 J/cm2; CellROX deep red; FIGS. 1-2. Format: cell-based. As to the method:
as §1

The nature of experiment [6]: ABTS radical cation reduction test. It counts as physicochemical. The following applies: 5 min at ambient temperature, expressed as α-tocopherol equivalent, FIG. 7.
Procedure: The ABTS test is based on the use of colored cationic radicals. In the presence of a molecule having an antioxidant power, the colored cationic radical is reduced and loses its color. Consequently, the antioxidant power of a molecule can be measured by the decoloration of the radical.
A solution was prepared by mixing ABTS (7 mM), potassium persulfate (2.45 mM) and water (qs 5 ml) and incubated for 16 hours at ambient temperature in the dark. Next, a range of eight concentrations of neurosporene, lycopene, α-tocopherol, 9Z-β carotene, zeaxanthin, trolox and D-tocotrienol was dispensed into 96-well microplates before adding the ABTS solution prepared above. The microplates were then incubated at ambient temperature for 5 min, and the coloration was then analyzed at 250 nm using a microplate reader.

`CC(C)=CCC/C(C)=C/C=C/C(C)=C/C=C/C(C)=C/C=C/C=C(C)/C=C/C=C(\C)CC/C=C(\C)CCC=C(C)C` [neurosporene, 7,8-dihydro-ψ,ψ-carotene]: in experiment [1], the “melanin production induced by blue light, change compared to the control exposed without treatment” value is −25%. Also, the “antioxidant power against blue light (ROSs produced in the cytosol)” value in experiment [2] is listed as “strong antioxidant power”. The “improvement of wound healing (injury filling by cell confluence) compared to nontreated control” value in experiment [3] is given as 35%. Moreover, in experiment [4], the “effect on intracellular ATP reduction induced by blue light” value is recorded as “makes it possible to limit the ATP reduction induced by blue light”. The “antioxidant power against UVA radiation (ROSs produced in the cytosol)” value in experiment [5] was “strong antioxidant power”. For the same compound, in experiment [6], the “antioxidant power relative to reference molecule α-tocopherol” value was “two times greater”.
